Measurements taken from patent US20060178354A1, “Methods and compositions for the treatment of chronic pain using dhea and derivatives thereof” (priority 2003, published 2006).

Tested on: chronic pain
Experiment: Subjective pain reduction in a person with chronic pain (case report, scale of 0-100% reduction)
Type: in vivo, human
Method: The tasks included many different routine physical tasks, but particularly included typing and use of a computer mouse. […] DHEA (50 mg/day) was also taken alone orally for three weeks. […] The degree was subjective based on a scale of 0-100% reduction, where 0% was no pain reduction and 100% was total pain elimination.
In addition to treatment with DHEA alone, the person of Example 1, was also treated with Nortriptyline alone and with a combination of 75 mg per day DHEA and 10 mg per day Nortriptyline.

`C[C@]12CC[C@H](O)CC1=CC[C@@H]1[C@@H]2CC[C@]2(C)C(=O)CC[C@@H]12` [DHEA, dehydroepiandrosterone] was tested, and the reduction in pain (50 mg/day alone orally for three weeks, by the end of the second week, subjective scale 0-100%) was “approximately 25%” and the “pain remaining, of the original pain” value (doses of 75 mg and I 00 mg for three weeks each, after 50 mg/day) was “less than 50%”.

With `CNCCC=C1c2ccccc2CCc2ccccc21` [Nortriptyline] the reduction in pain (alone, 10 mg per day) was “about 20%” and the “reduction in pain compared with 10 mg per day” value (alone, 25 and 50 mg doses) was “to greater extent”.

In the case of `Cc1ccc(-c2cc(C(F)(F)F)nn2-c2ccc(S(N)(=O)=O)cc2)cc1` [celecoxib], the reduction in pain (400 mg/day alone, subjective scale, 0% no pain reduction, 100% total pain elimination) is reported as “approximately 25%”.

With `NCC1(CC(=O)O)CCCCC1` [gabapeatin, gabapentin] the pain relief (treatment with the drug alone, person with 5 year history of chronic pain) was “did not result in pain relief”.
